Experimental data as given in ChEMBL document CHEMBL3734746, “Monoamine oxidase inhibitory activities of heterocyclic chalcones” (Bioorg Med Chem Lett, 2015).

Tests used:
[1] = target: T1, Amine oxidase [flavin-containing] B (Homo sapiens, UniProt P27338); assay: Inhibition of human MAO-B expressed in baculovirus infected BT1 cells microsome fraction by fluorescence spectrometry
T1 sequence (P27338 whole entry): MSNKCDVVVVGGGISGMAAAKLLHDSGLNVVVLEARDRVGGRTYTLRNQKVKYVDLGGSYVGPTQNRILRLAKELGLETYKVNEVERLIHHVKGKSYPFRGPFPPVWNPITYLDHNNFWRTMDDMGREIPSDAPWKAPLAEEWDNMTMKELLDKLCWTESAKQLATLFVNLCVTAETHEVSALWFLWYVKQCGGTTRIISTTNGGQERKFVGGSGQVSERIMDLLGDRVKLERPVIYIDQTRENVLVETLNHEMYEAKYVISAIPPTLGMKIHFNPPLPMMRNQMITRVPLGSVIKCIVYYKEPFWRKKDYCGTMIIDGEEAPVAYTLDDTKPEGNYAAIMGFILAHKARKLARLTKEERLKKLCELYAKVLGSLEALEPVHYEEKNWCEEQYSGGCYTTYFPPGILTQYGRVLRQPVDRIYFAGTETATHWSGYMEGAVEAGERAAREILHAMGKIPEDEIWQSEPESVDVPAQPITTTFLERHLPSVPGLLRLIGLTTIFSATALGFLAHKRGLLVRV

[2] = target: T2, Amine oxidase [flavin-containing] A (Homo sapiens, UniProt P21397); assay: Inhibition of human MAO-A expressed in baculovirus infected BT1 cells microsome fraction by fluorescence spectrometry
T2 sequence (P21397 whole entry): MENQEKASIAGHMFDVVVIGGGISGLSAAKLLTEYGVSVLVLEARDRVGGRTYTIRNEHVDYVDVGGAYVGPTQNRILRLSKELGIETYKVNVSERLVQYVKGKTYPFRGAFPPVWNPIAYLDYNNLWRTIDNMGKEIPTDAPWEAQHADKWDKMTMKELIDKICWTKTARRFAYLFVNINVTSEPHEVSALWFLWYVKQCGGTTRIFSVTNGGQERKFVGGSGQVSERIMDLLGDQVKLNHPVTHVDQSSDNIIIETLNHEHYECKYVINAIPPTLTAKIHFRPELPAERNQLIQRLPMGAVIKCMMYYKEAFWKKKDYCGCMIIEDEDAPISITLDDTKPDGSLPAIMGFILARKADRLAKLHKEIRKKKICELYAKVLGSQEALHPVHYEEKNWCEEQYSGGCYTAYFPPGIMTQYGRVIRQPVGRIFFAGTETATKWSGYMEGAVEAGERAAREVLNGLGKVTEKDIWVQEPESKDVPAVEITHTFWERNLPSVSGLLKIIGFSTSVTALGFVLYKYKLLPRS

Homo sapiens = species: Homo sapiens; assay: Selectivity index, ratio of IC50 for human MAO-A to IC50 for human MAO-B
[3] = target: T2, Amine oxidase [flavin-containing] A; assay: Irreversible inhibition of human MAO-A expressed in baculovirus infected BT1 cells microsome fraction assessed as enzyme activity recovered at 10 times of IC50 concentration preincubated for 30 mins followed by dilution to 0.1 times of IC50 concentration by fluorescence spectrometry; set-up: scale not given: the % may be the effect or the level left
[4] = target: T1, Amine oxidase [flavin-containing] B; assay: Reversible inhibition of human MAO-B expressed in baculovirus infected BT1 cells microsome fraction assessed as enzyme activity recovered at 10 times of IC50 concentration preincubated for 30 mins followed by dilution to 0.1 times of IC50 concentration by fluorescence spectrometry; set-up: scale not given: the % may be the effect or the level left
[5] = target: T1, Amine oxidase [flavin-containing] B; assay: Reversible inhibition of human MAO-B expressed in baculovirus infected BT1 cells microsome fraction assessed as enzyme activity recovered at 100 times of IC50 concentration preincubated for 30 mins followed by dilution to IC50 concentration by fluorescence spectrometry; set-up: scale not given: the % may be the effect or the level left
[6] = Cytotoxicity against human HeLa cells assessed as viable cells at 1 uM by MTT assay; assay type: cell-based; details: read-out: Activity
[7] = Cytotoxicity against human HeLa cells assessed as viable cells at 10 uM by MTT assay; assay type: cell-based; details: read-out: Activity
[8] = target: T2, Amine oxidase [flavin-containing] A; assay: Reversible inhibition of human MAO-A expressed in baculovirus infected BT1 cells microsome fraction assessed as enzyme activity recovered at 10 times of IC50 concentration preincubated for 30 mins followed by dilution to 0.1 times of IC50 concentration by fluorescence spectrometry; set-up: scale not given: the % may be the effect or the level left
[9] = target: T2, Amine oxidase [flavin-containing] A; assay: Reversible inhibition of human MAO-A expressed in baculovirus infected BT1 cells microsome fraction assessed as enzyme activity recovered at 100 times of IC50 concentration preincubated for 30 mins followed by dilution to IC50 concentration by fluorescence spectrometry; set-up: scale not given: the % may be the effect or the level left
[10] = Cytotoxicity against human HeLa cells by MTT assay; assay type: cell-based
[11] = target: T1, Amine oxidase [flavin-containing] B; assay: Reversible inhibition of human MAO-B expressed in baculovirus infected BT1 cells microsome fraction assessed as residual enzyme activity at 4 times of IC50 concentration preincubated for 15 mins followed by dialysis for 24 hrs by fluorescence spectrometry relative to control
[12] = target: T1, Amine oxidase [flavin-containing] B; assay: Inhibition of human MAO-B expressed in baculovirus infected BT1 cells microsome fraction assessed as residual enzyme activity at 4 times of IC50 concentration for 15 mins by fluorescence spectrometry relative to control; details: 0.25 h

Row | Structure (SMILES) | IC50 [1] | IC50 [2] | Ratio IC50 (Homo sapiens) | further results
1 | O=C(/C=C/c1cccc(C(F)(F)F)c1)c1ccc[nH]1 | 1.4 µM | 267 µM | 191 | 
2 | O=C(/C=C/c1ccc(C(F)(F)F)cc1)c1ccc(Cl)s1 | 0.133 µM | 7.56 µM | 57 | 
3 | COc1ccc(C(=O)/C=C/c2cccc(Cl)c2)cn1 | 0.33 µM | 15.3 µM | 46 | 
4 | O=C(/C=C/c1ccc(F)c(Br)c1)c1ccc(Cl)s1 | 0.116 µM | 10.5 µM | 91 | 
5 | C#CCN(C)[C@H](C)Cc1ccccc1 [SELEGILINE] |  |  |  | Activity [3]: 1.2%
6 | O=C(/C=C/c1ccc(F)c(Br)c1)c1ccc[nH]1 | 0.803 µM | 8.98 µM | 11 | Activity [4]: 81%; Activity [5]: 60%; viability at 1 µM [6]: 99.4%; viability at 10 µM [7]: 98%
7 | O=C(/C=C/c1cccc(Cl)c1)c1ccc[nH]1 | 3.27 µM | 143 µM | 44 | 
8 | O=C(/C=C/c1ccc(C(F)(F)F)cc1)c1ccc[nH]1 | 0.83 µM | 3.81 µM |  | Activity [8]: 90%; Activity [9]: 67%; Activity [4]: 85%; Activity [5]: 32%; viability at 1 µM [6]: 77.5%; viability at 10 µM [7]: 4.66%; CC50 [10]: 28.2 µM
9 | C#CCN(C)Cc1ccccc1 [PARGYLINE] |  |  |  | Activity [3]: 1.2%
10 | COc1ccc(C(=O)/C=C/c2ccc(Cl)s2)c(O)c1 | 0.185 µM | 9.99 µM | 54 | 
11 | Cc1ccc(C(=O)/C=C/c2ccc(F)c(Br)c2)s1 | 0.067 µM | 16.1 µM | 240 | Activity [4]: 26%; Activity [5]: 5%; Activity [11]: 83%; Activity [12]: 18%; viability at 1 µM [6]: 104%; viability at 10 µM [7]: 95.7%
